Laboratory results published in patent US20150126368A1, “METHOD OF PROVIDING PLANT WITH STRESS RESISTANCE” (Nippon Soda Co., Ltd., priority 2012, published 2015).

Key:
[1] = system: tomato yellow leaf curl virus (TYLCV); assay: Test for symptom relief effects against tomato yellow leaf curl virus disease; assay type: in vivo; settings: for Onset percentage(%): tomato graft-inoculated, sprayed 4 times; for Onset percentage(%) / Onset inhibition percentage(%): 25 days; for Onset inhibition percentage(%): vs solvent DMF only; for Expectation value(%): expectation value of onset inhibition percentage
Method: N,N-dimethylformamide based solutions were prepared according to the formulations shown in Table 18 to give chemical liquids for the tests.
Tomato nursery plants (breed: Momotaro) grown up to the 8 leaf stage in a greenhouse were prepared.
Tomato nursery plants suffering from tomato yellow leaf curl virus (TYLCV) were used as inoculation sources.
A diseased plant was obliquely cut in round slices at the stem, and graft-inoculated to a tomato nursery plant. In order to prevent dryness, parafilm was wrapped around the grafted portion for protection.
After the graft inoculation, the above chemical solution was sprayed on the stem and leaf part of the tomato nursery plant in a sufficient amount. Then, the above chemical solution was sprayed 3 times at intervals of about one week in a sufficient amount. Symptoms of tomato yellow leaf curl disease were investigated at an elapsed time of 25 days.
Symptoms were evaluated by 5 levels of onset indices of 0 (with no onset) to 4 (fulminant).
Onset inhibition percentages as compared with a region treated with solvent DMF only (Chemical solution 3) were computed by the following formula.
Onset inhibition percentage=(onset index of region treated with solvent only)−(onset index of each treatment region))/(onset index of region treated with solvent only)×100
Further, the expectation values of onset inhibition percentages were computed based on the Colby's equation.
The Colby's equation is E=M+N−MN/100. In the equation, E represents the expectation value of an onset inhibition percentage (%), and M represents an onset inhibition percentage (%) calculated from measurements when the substance (A1) is used alone, and N represent an onset inhibition percentage (%) calculated from measurements when the substance (A2) is used alone.

[2] = system: Eustoma grandiflorum (breed: King of Snow); assay: Evaluation test for relief effects of high temperature injury on Eustoma grandiflorum; assay type: in vivo; settings: ascorbyl palmitate 600 ppm, sprayed 10 times; 2 weeks at 35° C. daylight/15° C. dark
Method: Eustoma grandiflorum (breed: King of Snow) grown at a temperature of 22° C. and 16 hours under dark condition in a cell tray in the room was prepared. When an appropriately half were sprouted after seeding, a water dispersible granule of 30% ascorbyl palmitate was diluted with distilled water to a predetermined concentration, and the diluted solution was sprayed on the whole nursery plants in a sufficient amount. Subsequently, spraying by the same method was performed two times a week for the total of 10 times including the first application. Meanwhile, they were transferred to under conditions of 16 hours under a daylight condition at 35° C. and 8 hours under a dark condition at 15° C. at the expansion stage of a pair of true leaves 3 weeks after seeding, and allowed to grow for 2 weeks. Further, they were transferred to in a glass greenhouse and allowed to grow. Then naturalization was performed upon the expansion stage of two pairs of true leaves 8 week after seeding, and continuously allowed to grow in the greenhouse. Subsequently, the number of those bloomed out of the bolting plants was investigated.

SMILES: CCCCCCCCCCCCCCCC(=O)OC[C@H](O)[C@H]1OC(=O)C(O)=C1O [ascorbyl palmitate]
- Onset percentage(%) ([1]; 500 ppm alone): 30%
- Onset inhibition percentage(%) ([1]; 500 ppm alone): 40%
- Onset percentage(%) ([1]; 1000 ppm alone): 20%
- Onset inhibition percentage(%) ([1]; 1000 ppm alone): 60%
- Expectation value(%) ([1]; 500 ppm alone): 40%
- Expectation value(%) ([1]; 1000 ppm alone): 60%
- Number of bloomed plants [2]: 12
- Number of bolting plants [2]: 16
- Percents of bloomed plants(%) [2]: 75.0%
